Source: patent US20250120967A1, “TYROSINE KINASES INHIBITORS AND USES THEREOF” (GREAT NOVEL THERAPEUTICS BIOTECH & MEDICALS CORPORATION, priority 2023, published 2025)

What was measured:
Assay in all cases: Tyrosine kinase inhibition assay
Type in all cases: biochemical
Conditions in all cases: single concentration 1.0 μM, read-out: percent inhibition
[1] = biological target: EPHA4 (Homo sapiens, UniProt P54764)
Method in brief: (§1)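 Kinase activity was measured by Z′-LYTE peptide assay with ATP at the apparent Km, in kinase buffer (50 mM HEPES pH 7.5, 0.01% BRIJ-35, 10 mM MgCl2, 1 mM EGTA) with 1% DMSO final. Compounds were tested at a single 1.0 μM concentration and reported as percent inhibition; >80% counted as a hit.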

[2] = biological target: TNK2 (ACK) (Homo sapiens, UniProt Q07912)
Chain of TNK2 (ACK) (Q07912 whole entry): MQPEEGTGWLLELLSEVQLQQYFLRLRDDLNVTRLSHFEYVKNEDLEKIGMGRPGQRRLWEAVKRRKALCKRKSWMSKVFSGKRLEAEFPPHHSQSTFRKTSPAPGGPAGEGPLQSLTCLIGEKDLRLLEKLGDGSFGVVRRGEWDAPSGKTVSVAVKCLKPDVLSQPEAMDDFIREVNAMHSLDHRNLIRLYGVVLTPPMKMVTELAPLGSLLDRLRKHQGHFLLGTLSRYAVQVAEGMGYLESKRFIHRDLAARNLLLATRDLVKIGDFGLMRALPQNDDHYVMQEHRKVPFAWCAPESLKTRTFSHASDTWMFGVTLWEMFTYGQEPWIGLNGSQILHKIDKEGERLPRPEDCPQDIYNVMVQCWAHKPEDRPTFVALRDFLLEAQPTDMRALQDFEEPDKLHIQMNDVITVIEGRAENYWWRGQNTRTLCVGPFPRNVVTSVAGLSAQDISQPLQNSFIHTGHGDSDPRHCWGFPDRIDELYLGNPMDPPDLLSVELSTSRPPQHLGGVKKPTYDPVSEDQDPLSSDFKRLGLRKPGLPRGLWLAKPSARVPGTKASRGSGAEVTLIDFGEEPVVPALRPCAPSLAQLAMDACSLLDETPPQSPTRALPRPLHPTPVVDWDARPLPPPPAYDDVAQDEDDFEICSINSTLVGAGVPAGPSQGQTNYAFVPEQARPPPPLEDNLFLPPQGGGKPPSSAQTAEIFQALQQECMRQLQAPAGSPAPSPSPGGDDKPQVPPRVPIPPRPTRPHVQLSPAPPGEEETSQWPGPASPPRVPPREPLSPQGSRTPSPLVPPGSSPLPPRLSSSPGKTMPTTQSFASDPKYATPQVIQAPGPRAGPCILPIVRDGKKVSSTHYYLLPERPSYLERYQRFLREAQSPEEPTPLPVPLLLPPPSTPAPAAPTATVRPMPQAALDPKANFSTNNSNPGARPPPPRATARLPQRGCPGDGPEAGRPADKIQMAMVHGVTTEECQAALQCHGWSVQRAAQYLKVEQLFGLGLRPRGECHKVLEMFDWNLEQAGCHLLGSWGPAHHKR
Method in brief: as §1

[3] = biological target: T1, MUSK (Homo sapiens, UniProt O15146)
T1 sequence (O15146 24-869): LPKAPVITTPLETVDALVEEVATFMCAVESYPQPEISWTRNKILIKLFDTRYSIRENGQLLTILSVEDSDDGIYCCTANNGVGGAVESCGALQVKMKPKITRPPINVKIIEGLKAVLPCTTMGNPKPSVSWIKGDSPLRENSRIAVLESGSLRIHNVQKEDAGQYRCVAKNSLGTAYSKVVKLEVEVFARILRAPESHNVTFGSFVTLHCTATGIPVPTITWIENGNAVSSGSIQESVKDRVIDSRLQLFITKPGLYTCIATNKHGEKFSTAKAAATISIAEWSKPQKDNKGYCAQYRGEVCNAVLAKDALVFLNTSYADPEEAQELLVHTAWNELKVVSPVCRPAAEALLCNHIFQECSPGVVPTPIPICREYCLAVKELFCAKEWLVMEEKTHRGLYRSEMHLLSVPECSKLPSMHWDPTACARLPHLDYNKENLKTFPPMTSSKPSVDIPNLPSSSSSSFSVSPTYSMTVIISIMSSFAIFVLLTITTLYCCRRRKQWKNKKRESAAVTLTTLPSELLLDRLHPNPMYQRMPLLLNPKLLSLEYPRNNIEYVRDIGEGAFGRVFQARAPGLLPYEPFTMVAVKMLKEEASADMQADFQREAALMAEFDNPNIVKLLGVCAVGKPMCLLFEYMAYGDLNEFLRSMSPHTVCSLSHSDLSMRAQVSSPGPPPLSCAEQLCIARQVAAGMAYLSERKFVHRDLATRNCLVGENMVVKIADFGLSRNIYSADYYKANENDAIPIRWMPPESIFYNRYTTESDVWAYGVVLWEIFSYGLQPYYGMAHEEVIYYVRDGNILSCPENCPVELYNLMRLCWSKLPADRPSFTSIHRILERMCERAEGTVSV
Method in brief: as §1

[4] = biological target: ALK (Homo sapiens, UniProt Q9UM73)
Chain of ALK (Q9UM73 19-1620): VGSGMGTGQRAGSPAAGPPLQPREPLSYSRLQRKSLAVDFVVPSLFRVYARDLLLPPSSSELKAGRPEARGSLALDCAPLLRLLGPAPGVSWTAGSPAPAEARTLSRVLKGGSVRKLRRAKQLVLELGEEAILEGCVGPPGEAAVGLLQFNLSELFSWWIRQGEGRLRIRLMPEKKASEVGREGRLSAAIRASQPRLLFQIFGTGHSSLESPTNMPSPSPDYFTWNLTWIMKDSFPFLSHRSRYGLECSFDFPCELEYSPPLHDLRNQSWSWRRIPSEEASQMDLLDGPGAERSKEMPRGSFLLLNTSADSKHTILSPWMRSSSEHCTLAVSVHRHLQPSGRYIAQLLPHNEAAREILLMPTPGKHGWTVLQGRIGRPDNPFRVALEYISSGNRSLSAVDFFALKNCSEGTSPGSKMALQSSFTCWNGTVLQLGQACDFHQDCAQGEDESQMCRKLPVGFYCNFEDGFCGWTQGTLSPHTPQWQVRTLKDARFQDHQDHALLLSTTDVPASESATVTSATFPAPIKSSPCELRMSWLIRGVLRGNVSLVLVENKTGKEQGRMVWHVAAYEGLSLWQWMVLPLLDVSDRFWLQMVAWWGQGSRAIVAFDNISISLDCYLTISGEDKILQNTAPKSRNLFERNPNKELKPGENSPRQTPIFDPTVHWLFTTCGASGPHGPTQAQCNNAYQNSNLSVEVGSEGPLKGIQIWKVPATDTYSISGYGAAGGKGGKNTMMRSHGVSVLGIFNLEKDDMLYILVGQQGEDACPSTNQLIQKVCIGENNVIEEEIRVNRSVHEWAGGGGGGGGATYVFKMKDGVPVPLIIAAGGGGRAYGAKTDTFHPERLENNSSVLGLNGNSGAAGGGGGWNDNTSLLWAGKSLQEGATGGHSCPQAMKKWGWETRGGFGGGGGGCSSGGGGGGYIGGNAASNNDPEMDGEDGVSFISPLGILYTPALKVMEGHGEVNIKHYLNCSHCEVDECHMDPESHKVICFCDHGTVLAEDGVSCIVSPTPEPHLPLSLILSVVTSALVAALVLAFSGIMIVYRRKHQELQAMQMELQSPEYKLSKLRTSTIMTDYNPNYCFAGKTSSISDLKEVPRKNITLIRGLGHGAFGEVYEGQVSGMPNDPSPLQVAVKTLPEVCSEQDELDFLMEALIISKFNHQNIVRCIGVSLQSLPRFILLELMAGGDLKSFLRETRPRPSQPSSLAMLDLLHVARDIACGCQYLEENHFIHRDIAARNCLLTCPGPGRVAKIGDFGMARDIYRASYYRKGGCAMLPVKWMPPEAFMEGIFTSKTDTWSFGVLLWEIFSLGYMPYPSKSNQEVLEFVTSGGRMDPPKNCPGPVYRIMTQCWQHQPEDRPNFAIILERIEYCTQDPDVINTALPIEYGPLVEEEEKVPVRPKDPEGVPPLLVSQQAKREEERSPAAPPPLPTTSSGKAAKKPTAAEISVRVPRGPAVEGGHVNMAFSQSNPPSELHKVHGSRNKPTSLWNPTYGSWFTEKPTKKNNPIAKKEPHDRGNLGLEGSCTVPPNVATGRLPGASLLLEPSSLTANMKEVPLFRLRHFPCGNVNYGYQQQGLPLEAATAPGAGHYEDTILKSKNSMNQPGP
Method in brief: as §1

[5] = biological target: T2, EPHA6 (Homo sapiens, UniProt Q9UF33)
T2 sequence (Q9UF33 23-1036): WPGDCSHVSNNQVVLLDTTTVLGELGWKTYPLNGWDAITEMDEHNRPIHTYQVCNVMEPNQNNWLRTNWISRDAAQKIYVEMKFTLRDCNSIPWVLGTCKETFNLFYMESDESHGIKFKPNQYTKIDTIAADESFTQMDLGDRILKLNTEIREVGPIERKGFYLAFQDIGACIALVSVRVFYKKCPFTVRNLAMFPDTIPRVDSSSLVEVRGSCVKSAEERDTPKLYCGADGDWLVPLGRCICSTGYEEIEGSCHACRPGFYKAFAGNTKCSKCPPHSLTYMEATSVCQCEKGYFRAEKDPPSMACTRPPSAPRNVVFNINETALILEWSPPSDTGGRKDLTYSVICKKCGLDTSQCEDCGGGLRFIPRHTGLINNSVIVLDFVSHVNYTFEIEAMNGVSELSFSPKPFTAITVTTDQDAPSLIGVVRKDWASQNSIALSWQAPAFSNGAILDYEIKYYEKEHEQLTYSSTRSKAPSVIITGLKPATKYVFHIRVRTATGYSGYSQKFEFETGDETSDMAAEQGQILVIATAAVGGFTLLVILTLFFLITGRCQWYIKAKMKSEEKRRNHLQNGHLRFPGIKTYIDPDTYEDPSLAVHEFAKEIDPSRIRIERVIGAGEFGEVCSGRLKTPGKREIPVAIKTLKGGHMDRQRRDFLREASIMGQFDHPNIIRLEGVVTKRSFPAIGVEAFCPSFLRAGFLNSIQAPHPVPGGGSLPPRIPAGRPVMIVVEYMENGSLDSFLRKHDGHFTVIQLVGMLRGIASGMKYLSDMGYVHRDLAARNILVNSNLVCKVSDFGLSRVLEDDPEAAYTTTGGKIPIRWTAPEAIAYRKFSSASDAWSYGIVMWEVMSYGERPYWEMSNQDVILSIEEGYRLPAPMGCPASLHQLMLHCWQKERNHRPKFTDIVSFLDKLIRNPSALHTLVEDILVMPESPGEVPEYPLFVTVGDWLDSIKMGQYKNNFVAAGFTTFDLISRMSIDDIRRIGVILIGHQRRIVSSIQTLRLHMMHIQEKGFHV
Method in brief: as §1

Chain of EPHA4 (P54764 20-986): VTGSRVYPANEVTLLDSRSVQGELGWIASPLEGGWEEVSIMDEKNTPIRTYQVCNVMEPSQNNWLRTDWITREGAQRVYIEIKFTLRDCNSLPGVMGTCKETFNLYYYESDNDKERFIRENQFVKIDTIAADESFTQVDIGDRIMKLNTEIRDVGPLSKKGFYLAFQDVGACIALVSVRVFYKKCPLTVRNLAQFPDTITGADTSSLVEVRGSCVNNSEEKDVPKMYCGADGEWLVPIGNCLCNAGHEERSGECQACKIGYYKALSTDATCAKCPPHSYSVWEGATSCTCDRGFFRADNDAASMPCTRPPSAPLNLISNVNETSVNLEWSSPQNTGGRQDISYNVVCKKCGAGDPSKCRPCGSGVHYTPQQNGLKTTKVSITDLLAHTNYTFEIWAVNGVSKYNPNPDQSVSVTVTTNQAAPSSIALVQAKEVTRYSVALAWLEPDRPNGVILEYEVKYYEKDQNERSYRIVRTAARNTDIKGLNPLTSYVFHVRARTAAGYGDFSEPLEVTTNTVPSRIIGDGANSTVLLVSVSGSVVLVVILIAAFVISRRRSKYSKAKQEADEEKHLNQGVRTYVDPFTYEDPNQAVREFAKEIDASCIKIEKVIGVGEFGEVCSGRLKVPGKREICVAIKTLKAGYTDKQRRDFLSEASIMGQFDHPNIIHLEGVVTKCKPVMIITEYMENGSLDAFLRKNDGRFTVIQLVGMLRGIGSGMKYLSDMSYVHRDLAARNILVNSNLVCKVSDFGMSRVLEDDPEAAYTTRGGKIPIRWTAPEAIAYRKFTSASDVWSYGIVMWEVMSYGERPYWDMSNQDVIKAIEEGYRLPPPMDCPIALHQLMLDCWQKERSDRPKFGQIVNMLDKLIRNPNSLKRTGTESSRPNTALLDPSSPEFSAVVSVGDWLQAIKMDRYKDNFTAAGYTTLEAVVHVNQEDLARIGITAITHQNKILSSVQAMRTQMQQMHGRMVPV

In the case of `COc1cc2nccc(Oc3ccc(NC(=O)C4(C(=O)Nc5ccc(F)cc5)CC4)cc3)c2cc1OC` [Cabozantinib, reference compound], the inhibition at 1 µM [1] is reported as 100%, the inhibition at 1 µM [2] is reported as 61% and the inhibition at 1 µM [3] is reported as 92%. The inhibition at 1 µM [4] was 28% and the inhibition at 1 µM [5] was 103%.
`COc1cc2nccc(Oc3ccc(NC(=O)C4(NC(=O)c5ccc(F)cc5)CC4)cc3F)c2cc1OC` [Cbo-02, N-(1-((4-((6,7-diMethoxyquinolin-4-yl)oxy)-3-fluorophenyl)carbamoyl)cyclopropyl)-4-fluorobenzamide] gave an inhibition at 1 µM [1] of 79%, an inhibition at 1 µM [2] of 63% and an inhibition at 1 µM [3] of 31%. It also gave an inhibition at 1 µM [4] of 20% and an inhibition at 1 µM [5] of 75%.
With `COc1cc2nccc(Oc3ccc(NC(=O)C4(NC(=O)c5ccc(F)cc5)CC4)cc3F)c2cc1Oc1ccc(N)cc1F` [Cbo-10] the inhibition at 1 µM [1] was 91%, the inhibition at 1 µM [2] was 95% and the inhibition at 1 µM [3] was 68%. The inhibition at 1 µM [4] was 36% and the inhibition at 1 µM [5] was 94%.
With `COc1cc2nccc(Oc3ccc(NC(=O)C4(NC(=O)c5ccc(F)cc5)CC4)cc3F)c2cc1Oc1c(F)cc(N)cc1F` [Cbo-14] the inhibition at 1 µM [1] was 89%, the inhibition at 1 µM [2] was 96% and the inhibition at 1 µM [3] was 76%. The inhibition at 1 µM [4] was 32% and the inhibition at 1 µM [5] was 96%.
`COc1cc2nccc(Oc3ccc(NC(=O)C4(C(=O)Nc5ccc(F)cc5)CC4)cc3F)c2cc1Oc1ccc(N)cc1F` [Cbo-23] was tested, and the inhibition at 1 µM [1] was 100%, the inhibition at 1 µM [2] was 89% and the inhibition at 1 µM [3] was 85%. For the same compound, the inhibition at 1 µM [4] was 78% and the inhibition at 1 µM [5] was 100%.
